For assay [1], the system named is MDA-MB-231. As to the kind of experiment: Antiproliferative activity against human MDA-MB-231 cells assessed as reduction in cell viability incubated for 48 hrs by MTT assay. The class given is functional, cell-based. To be noted: MDA-MB-231, 48 h.
Assay [2] deals with MDA-MB-468. Nature of the assay: Antiproliferative activity against human MDA-MB-468 cells assessed as reduction in cell viability incubated for 48 hrs by MTT assay. The class given is functional, cell-based. To be noted: MDA-MB-468, 48 h.
For a further assay, the system named is MCF7. Nature of the assay: Antiproliferative activity against human MCF7 cells incubated for 48 hrs by MTT assay. The conditions noted are these: MCF7, 48 h. The class given is functional, cell-based.
Assay [3] concerns the target Signal transducer and activator of transcription 3 (Homo sapiens, UniProt P40763). Nature of the assay: Inhibition of STAT3 activation in human MDA-MB-231 cells assessed as reduction in STAT3 phosphorylation at Tyr705 residue at 1 uM measured after 24 hrs by Western blot analysis relative to control. Type of assay: cell-based.
For assay [4], the system named is MDA-MB-231. As to the kind of experiment: Induction of apoptosis in human MDA-MB-231 cells assessed as early apoptotic cells at 3 uM measured after 24 hrs by Annexin V/propidium iodide (PI) double staining based flow cytometric analysis (reference value: 1.98 %). Type of assay: functional.
Assay [5] relates to MDA-MB-231. As to the kind of experiment: Induction of apoptosis in human MDA-MB-231 cells assessed as late apoptotic cells at 3 uM measured after 24 hrs by Annexin V/propidium iodide (PI) double staining based flow cytometric analysis (reference value: 2.22 %). The class given is functional.
In assay [6] the test system is MDA-MB-468. Nature of the assay: Induction of apoptosis in human MDA-MB-468 cells assessed as early apoptotic cells at 3 uM measured after 24 hrs by Annexin V/propidium iodide (PI) double staining based flow cytometric analysis (reference value: 2.94 %). The class given is functional.
Assay [7] relates to MDA-MB-468. As to the kind of experiment: Induction of apoptosis in human MDA-MB-468 cells assessed as late apoptotic cells at 3 uM measured after 24 hrs by Annexin V/propidium iodide (PI) double staining based flow cytometric analysis (reference value: 2.24 %). The class given is functional.

The source made the active and inactive calls. The rule behind the calls is not given here.

Sequence of Signal transducer and activator of transcription 3 (P40763 whole entry): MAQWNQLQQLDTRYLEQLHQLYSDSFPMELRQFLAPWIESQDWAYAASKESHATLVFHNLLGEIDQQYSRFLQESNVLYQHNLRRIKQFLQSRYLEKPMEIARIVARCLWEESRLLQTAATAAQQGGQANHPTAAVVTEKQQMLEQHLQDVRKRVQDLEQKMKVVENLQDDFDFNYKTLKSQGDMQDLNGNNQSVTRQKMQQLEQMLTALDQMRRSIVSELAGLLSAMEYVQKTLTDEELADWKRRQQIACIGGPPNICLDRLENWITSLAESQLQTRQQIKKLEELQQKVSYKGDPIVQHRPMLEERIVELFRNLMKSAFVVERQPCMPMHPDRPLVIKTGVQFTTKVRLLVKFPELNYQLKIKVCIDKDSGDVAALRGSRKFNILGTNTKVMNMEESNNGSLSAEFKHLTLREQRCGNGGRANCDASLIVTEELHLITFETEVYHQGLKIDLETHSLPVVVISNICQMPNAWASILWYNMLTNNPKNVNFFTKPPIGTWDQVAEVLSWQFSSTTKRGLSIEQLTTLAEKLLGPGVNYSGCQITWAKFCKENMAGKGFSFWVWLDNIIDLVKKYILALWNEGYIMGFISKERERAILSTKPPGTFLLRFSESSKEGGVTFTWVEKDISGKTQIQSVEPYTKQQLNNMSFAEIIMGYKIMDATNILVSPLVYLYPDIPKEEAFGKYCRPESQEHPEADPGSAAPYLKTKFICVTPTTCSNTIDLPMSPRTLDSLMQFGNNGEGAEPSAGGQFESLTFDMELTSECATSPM

With `O=C1C(=O)c2c(oc3c2CCN([C@H](CO)Cc2ccc(O)cc2)C3=O)-c2ccccc21`, the values for the IC50 with MDA-MB-231 [1] and with MDA-MB-468 [2] were > 4000 nM and 2620 nM, respectively.

For `O=CN1CCN(CCCN2CCc3c(oc4c3C(=O)C(=O)c3ccccc3-4)C2=O)CC1`, the IC50 stood at 3270 nM with MDA-MB-231 [1] and 3690 nM in the assay with MDA-MB-468 [2].

In the assay with MCF7, `CC1(C)CCC2=C(O1)c1ccccc1C(=O)C2=O` [LAPACHONE] displayed an IC50 of 3990 nM.

Take `O=C1C(=O)c2c(oc3c2CCN(CCCN2CC4(COC4)C2)C3=O)-c2ccccc21`: the IC50 amounted to 920 nM in the assay with MDA-MB-231 [1] and 1460 nM with MDA-MB-468 [2].

Consider `CC(C)C[C@@H](CO)N1CCc2c(oc3c2C(=O)C(=O)c2ccccc2-3)C1=O`, for which the figures for the IC50 in the assay with MDA-MB-231 [1] and in the assay with MDA-MB-468 [2] were 2490 nM and 2450 nM, respectively.

In the case of `CCN(CC)CCCN1CCc2c(oc3c2C(=O)C(=O)c2ccccc2-3)C1=O`, the IC50 in the assay on MDA-MB-231 [1] was found to be 650 nM; with MDA-MB-468 [2], 1070 nM. Moreover, the inhibition result in assay [3] is “Active”.

For `O=C1C(=O)c2c(oc3c2CCN(CCC(=O)N2CCOCC2)C3=O)-c2ccccc21`, the half-maximal inhibitory concentration (IC50) in the assay on MDA-MB-231 [1] was 3050 nM; in the assay with MDA-MB-468 [2], 2240 nM.

As to `CC(=O)c1cc2c(o1)C(=O)c1ccccc1C2=O` [NAPABUCASIN], the IC50 in the assay with MDA-MB-231 [1] is 3500 nM; with MDA-MB-468 [2], 3590 nM. The Activity in the assay with MDA-MB-231 [4] is given as 3.34%; in the assay with MDA-MB-231 [5], 6.23%; in the assay with MDA-MB-468 [6] it was 8.87%; with MDA-MB-468 [7], 6%.

As to `C[C@@H](CO)N1CCc2c(oc3c2C(=O)C(=O)c2ccccc2-3)C1=O`, the IC50 in the assay with MDA-MB-231 [1] was determined as 640 nM; in the assay with MDA-MB-468 [2] it was 1310 nM.

With `O=C1C(=O)c2c(oc3c2CCN(CCO)C3=O)-c2ccccc21`, the IC50 worked out at 750 nM in the assay on MDA-MB-231 [1] and 1430 nM with MDA-MB-468 [2].

Source of the values: ChEMBL document CHEMBL6103591, “Discovery of naphthoquinone-furo-piperidone derivatives as dual targeting agents of STAT3 and NQO1 for the treatment of breast cancer” (Eur J Med Chem, 2025).
